In publication PMC6366418, “Evaluation of a flavonoids library for inhibition of pancreatic α-amylase towards a structure–activity relationship” (Journal of Enzyme Inhibition and Medicinal Chemistry, 2019):
Entries after “also recorded” stand apart in the source; their conditions may differ. Read-outs that look alike come from different tables or passages of the source.

Assays:
[1] = molecular target: T1, porcine pancreatic α-amylase (Sus scrofa, UniProt P00690); assay: In vitro pancreatic α-amylase inhibition assay (CNPG3 substrate, 405 nm); type: biochemical; conditions: for Inhibition of α-amylase activity (in words): up to the highest tested concentration (200 µM); for IC50: enzyme 0.2 U/mL, CNPG3 0.5 mM, pH 6.8, 37 °C;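 as to all read-outs here: enzyme rate taken from the absorbance slope between 5 and 30 min of CNPG3 hydrolysis, inhibition derived from these rates, at least three independent experiments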
T1 construct: α-Amylase from porcine pancreas; purchased Sigma-Aldrich Co. LLC (St. Louis, MO); host or cells: porcine pancreas (tissue-derived commercial preparation)
T1 sequence (P00690 16-511): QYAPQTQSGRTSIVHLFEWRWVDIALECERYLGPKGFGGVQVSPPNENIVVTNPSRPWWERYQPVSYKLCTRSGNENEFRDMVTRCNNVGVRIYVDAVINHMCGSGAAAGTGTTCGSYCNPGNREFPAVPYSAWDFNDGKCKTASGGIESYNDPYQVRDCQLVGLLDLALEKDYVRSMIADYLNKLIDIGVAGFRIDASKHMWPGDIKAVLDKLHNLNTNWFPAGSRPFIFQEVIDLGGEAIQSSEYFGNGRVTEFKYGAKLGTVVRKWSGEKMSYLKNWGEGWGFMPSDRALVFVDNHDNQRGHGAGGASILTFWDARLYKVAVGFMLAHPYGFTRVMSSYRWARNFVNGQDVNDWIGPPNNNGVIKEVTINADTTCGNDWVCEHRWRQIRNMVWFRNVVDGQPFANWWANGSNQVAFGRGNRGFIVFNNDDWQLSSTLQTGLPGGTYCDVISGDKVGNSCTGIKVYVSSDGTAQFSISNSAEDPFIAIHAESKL

[2] = molecular target: T1, porcine pancreatic α-amylase; set-up: method as in Tadera et al.,[21]; conditions: highest tested concentration of 0.5 mM; ref Tadera et al.,[21]; cited from earlier work
[3] = molecular target: T2, α-amylase from porcine pancreas (Sus scrofa, UniProt P00690); assay: Inhibitory kinetics of α-amylase (nonlinear regression, Excel Solver); type: biochemical; conditions: for Type of inhibition: CNPG3 0.25, 0.5 and 1 mM, best model by F test and AIC; for Vmax: best model; for V max (Solver fit): rate axis DA/min
T2 construct: α-Amylase from porcine pancreas; purchased Sigma-Aldrich Co. LLC (St. Louis, MO); host or cells: porcine pancreas (tissue-derived commercial preparation)
T2 sequence (P00690 16-511): T1 sequence (P00690 16-511)

α-amylase = test system: α-amylase; set-up: method as in Kim et al.[55] and Yoon and Robyt,[52]; conditions: ref Kim et al.[55] and Yoon and Robyt,[52]; cited from earlier work
[4] = 200 µM, mean ± SEM, read-out: Inhibition (%) at the highest tested concentration
[5] = competitive inhibition constant, ± SD (jackknife), read-out: Kic
[6] = supplement, competitive inhibition model
[7] = supplement, competitive inhibition model, read-out: K ic (Solver fit)

O=c1cc(-c2ccccc2)oc2cccc(O)c12 [B1]
inhibition at 200 µM [1, 4]: < 2%

COc1cccc(-c2oc3cc(OC)ccc3c(=O)c2O)c1 [C7]
inhibition at 200 µM [1, 4]: < 20%
Inhibition of α-amylase activity (in words) [1]: remained unchanged; also recorded: no inhibitory activity

O=c1cc(-c2ccccc2)oc2ccccc12 [A1, Flavone]
inhibition at 200 µM [1, 4]: < 20%

O=c1cc(-c2cccc(O)c2)oc2ccccc12 [A2]
inhibition at 200 µM [1, 4]: < 20%

O=C1C[C@@H](c2ccc(O)c(O)c2)Oc2cc(O)cc(O)c21 [E2, Eriodictyol]
inhibition at 200 µM [1, 4]: < 20%
Inhibition of α-amylase activity (in words) [1]: not able to inhibit

O=c1c(O)c(-c2cc(O)c(O)c(O)c2)oc2cc(O)cc(O)c12 [D9, Myricetin]
IC50 ([1]; mean ± SEM): 107 ± 6 µM

O=C1c2c(O)cc(O)cc2OC(c2ccc(O)c(O)c2)C1O (stereo not drawn) [E3, Taxifolin]
inhibition at 200 µM [1, 4]: < 20%
Inhibition of α-amylase activity (in words) [1]: not able to inhibit

O=c1cc(-c2ccccc2)oc2cc(O)cc(O)c12 [D1, Chrysin]
inhibition at 200 µM [1, 4]: 22 ± 3%

COc1ccc(-c2cc(=O)c3c(O)cc(O)cc3o2)cc1OC [D18]
inhibition at 200 µM [1, 4]: 33 ± 3%

O=c1cc(-c2cccc(O)c2)oc2cc(O)cc(O)c12 [D4]
IC50 ([1]; mean ± SEM): ~200 µM

O=c1cc(-c2ccc(O)c(O)c2)oc2cc(O)cc(O)c12 [D7, Luteolin]
Decrease of inhibitory activity / increase of IC50 compared with D11 ([1]; fold, relative to D11): two-fold
IC50 ([1]; mean ± SEM): 78 ± 3 µM

O=c1cc(-c2cccc(O)c2)oc2cccc(O)c12 [B2]
inhibition at 200 µM [1, 4]: < 20%

O=C1C[C@@H](c2ccc(O)cc2)Oc2cc(O)cc(O)c21 [E1, Naringenin]
inhibition at 200 µM [1, 4]: < 20%
Inhibition of α-amylase activity (in words) [1]: not able to inhibit
Inhibition of porcine pancreatic α-amylase activity (in words) [2]: not able to inhibit

Acacetin [D17]
Inhibition (%) at the highest tested concentration ([1]; 200 µM, mean ± SEM): <20%^200 µM*

O=c1cc(-c2ccc(O)c(O)c2)oc2cccc(O)c12 [B4]
IC50 ([1]; mean ± SEM): 148 ± 5 µM
Type of inhibition [3]: competitive inhibitors; also recorded: competitive inhibition
Vmax ([3]; ± SD (jackknife)): 12.0 ± 0.6 µmol/min
Ki [3, 5]: 132 ± 15 µM
V max (Solver fit) [3, 6]: 40,026555
Ki [3, 7]: 132 µM

O=c1c(O)c(-c2ccc(O)cc2)oc2cc(O)cc(O)c12 [D6, Kaempferol]
IC50 ([1]; mean ± SEM): 118 ± 7 µM

O=c1cc(-c2ccc(O)cc2)oc2cc(O)ccc12 [C3]
inhibition at 200 µM [1, 4]: 36 ± 3%
Inhibition of α-amylase activity (in words) [1]: lack of inhibitory activity

O=c1c(O)c(-c2cccc(O)c2)oc2cc(O)ccc12 [C4]
inhibition at 200 µM [1, 4]: 34 ± 3%
Inhibition of α-amylase activity (in words) [1]: low activity

O=c1cc(-c2ccc(O)c(O)c2)oc2cc(O)ccc12 [C6]
IC50 ([1]; mean ± SEM): 131 ± 1 µM

Morin [D10]
Inhibition (%) at the highest tested concentration ([1]; 200 µM, mean ± SEM): 23 ± 1 %^200µM*

O=c1c(O)c(-c2ccccc2)oc2cc(O)cc(O)c12 [D2, Galangin]
inhibition at 200 µM [1, 4]: < 20%

COc1ccc(-c2oc3ccccc3c(=O)c2O)cc1OC [A6]
inhibition at 200 µM [1, 4]: < 20%

C[C@H]1O[C@H](O[C@H]2[C@H](O)[C@@H](O)[C@@H](O[C@H]3[C@H](O)[C@@H](O)C(O)O[C@@H]3CO)O[C@@H]2CO)[C@H](O)[C@@H](O)[C@@H]1N[C@H]1C=C(CO)[C@@H](O)[C@H](O)[C@H]1O (stereo partly drawn) [Acarbose, reference compound]
Type of inhibition [3]: Mixed
Type of inhibition ([3]; listed as acarbose): mixed-type inhibitor; also recorded: mixed-type inhibition
Vmax ([3]; ± SD (jackknife)): 12.0 ± 0.9 µmol/min
V max (Solver fit) ([3]; supplement, mixed inhibition model): 39,76745004
Type of inhibition (α-amylase): mixed type inhibitor

O=c1c(O)c(-c2ccc(O)cc2)oc2cc(O)ccc12 [C5]
IC50 ([1]; mean ± SEM): 59 ± 4 µM
Type of inhibition [3]: competitive inhibitors; also recorded: competitive inhibition
Vmax ([3]; ± SD (jackknife)): 10.5 ± 0.9 µmol/min
Ki [3, 5]: 71 ± 7 µM
K m (Solver fit) [3, 6]: 0,9963 mM
V max (Solver fit) [3, 6]: 35,186
Ki [3, 7]: 71.4 µM

O=c1cc(-c2ccc(O)cc2)oc2ccccc12 [A3]
inhibition at 200 µM [1, 4]: < 20%

O=c1cc(-c2ccccc2)oc2cc(O)ccc12 [C1]
inhibition at 200 µM ([1]; read-out: Inhibition (%) at the highest tested concentration): < 20%

O=c1cc(-c2cccc(O)c2)oc2cc(O)ccc12 [C2]
inhibition at 200 µM [1, 4]: 28 ± 3%

O=c1c(O)c(-c2ccc(O)c(O)c2)oc2ccccc12 [A5]
inhibition at 200 µM [1, 4]: 31 ± 3%

COc1ccc(-c2oc3cc(OC)ccc3c(=O)c2O)cc1 [C8]
inhibition at 100 µM ([1]; 100 µM, mean ± SEM, read-out: Inhibition (%) at the highest tested concentration): < 20%
Inhibition of α-amylase activity (in words) [1]: remained unchanged; also recorded: no inhibitory activity

C[C@@H]1O[C@@H](OC[C@H]2O[C@@H](Oc3c(-c4ccc(O)c(O)c4)oc4cc(O)cc(O)c4c3=O)[C@H](O)[C@@H](O)[C@@H]2O)[C@H](O)[C@H](O)[C@H]1O [D19, Rutin]
inhibition at 200 µM [1, 4]: < 20%
Inhibition of α-amylase activity (in words) [1]: no activity was found

O=c1cc(-c2ccc(O)c(O)c2)oc2ccccc12 [A4]
inhibition at 200 µM [1, 4]: 46 ± 2%

O=c1cc(-c2ccc(O)cc2)oc2cccc(O)c12 [B3]
inhibition at 200 µM [1, 4]: < 20%
